US11136311B2, “Heteroaromatic derivatives as NIK inhibitors” (Janssen Pharmaceutica NV, priority 2016, dated 2021)
Like-named read-outs stand apart in the source and are kept apart here.

Columns and labels:
JJN-3 cells = experiment: Antiproliferative activity on JJN-3 (NIK translocated) multiple myeloma cells (CellTiter-Glo); assay type: cell-based, human; settings: JJN-3 (NIK translocated) cells, 96 hr, averaged values, read-out: JJN-3 Proliferation inhibition (IC50 (nM))
Protocol: (§1) Determination of antiproliferative activity on JJN-3 (NIK translocated) and KMS12-BM (NIK WT) multiple myeloma cells
(§2) All compounds tested were dissolved in DMSO and further dilutions were made in culture medium. Final DMSO concentration was 0.3% (v/v) in cell proliferation assays. Viability was assessed using CellTiter-Glo cell viability assay kit (Promega). The human JJN-3 and KMS12-BM cells (DSMZ) were cultured in RPMI 1640 medium supplemented with 2 mM L-glutamine, and 10% fetal calf serum (PAA). Cells were routinely kept as suspension cells at 37° C. in a humidified 5% CO2 atmosphere. Cells were passaged at a seeding density of 0.2×10^6/ml twice a week. Cells were seeded in black tissue culture treated 96-well plates (Perkin Elmer). Densities used for plating ranged from 15000 (JJN3) to 20000 (KMS12BM) cells per well in a total volume of 135 μl medium. Drugs and/or solvents were added (15 μl) to a final volume of 150 μl. Following 96 hr of treatment, plates were removed from the incubator and allowed to equilibrate to room temperature for approx 10 min. 75 μl CellTiter-Glo reagent was added to each well that was then covered (Perkin Elmer Topseal) and shaken on plate shaker for 10 min. Luminescence was measured on a HTS Topcount (Perkin Elmer). Within an experiment, the results for each treatment were the mean of 2 replicate wells. For initial screening purposes, compounds were tested using a 9 point dilution curve (serial 1:3 dilutions). For each experiment, controls (containing no drug) and a blank incubation (containing cells read at the time of compound addition) were run in parallel. The blank value was subtracted from all control and sample values. For each sample, the mean value for cell growth (in relative light units) was expressed as a percentage of the mean value for cell growth of the control.

KMS12-BM cells = experiment: Antiproliferative activity on KMS12-BM (NIK WT) multiple myeloma cells (CellTiter-Glo); assay type: cell-based, human; settings: KMS12-BM (NIK WT) cells, 96 hr, averaged values, read-out: KMS-12 Proliferation inhibition (IC50 (nM))
Protocol: as §1, §2

[1] = target: recombinant human NF-kappaB-inducing kinase (NIK/MAP3K14) (Homo sapiens (Human), UniProt Q99558); experiment: Inhibition of auto-phosphorylation of recombinant human NIK/MAP3K14 activity (AlphaScreen); assay type: biochemical; settings: averaged values over all measurements on all batches
Chain of recombinant human NF-kappaB-inducing kinase (NIK/MAP3K14) (Q99558 whole entry): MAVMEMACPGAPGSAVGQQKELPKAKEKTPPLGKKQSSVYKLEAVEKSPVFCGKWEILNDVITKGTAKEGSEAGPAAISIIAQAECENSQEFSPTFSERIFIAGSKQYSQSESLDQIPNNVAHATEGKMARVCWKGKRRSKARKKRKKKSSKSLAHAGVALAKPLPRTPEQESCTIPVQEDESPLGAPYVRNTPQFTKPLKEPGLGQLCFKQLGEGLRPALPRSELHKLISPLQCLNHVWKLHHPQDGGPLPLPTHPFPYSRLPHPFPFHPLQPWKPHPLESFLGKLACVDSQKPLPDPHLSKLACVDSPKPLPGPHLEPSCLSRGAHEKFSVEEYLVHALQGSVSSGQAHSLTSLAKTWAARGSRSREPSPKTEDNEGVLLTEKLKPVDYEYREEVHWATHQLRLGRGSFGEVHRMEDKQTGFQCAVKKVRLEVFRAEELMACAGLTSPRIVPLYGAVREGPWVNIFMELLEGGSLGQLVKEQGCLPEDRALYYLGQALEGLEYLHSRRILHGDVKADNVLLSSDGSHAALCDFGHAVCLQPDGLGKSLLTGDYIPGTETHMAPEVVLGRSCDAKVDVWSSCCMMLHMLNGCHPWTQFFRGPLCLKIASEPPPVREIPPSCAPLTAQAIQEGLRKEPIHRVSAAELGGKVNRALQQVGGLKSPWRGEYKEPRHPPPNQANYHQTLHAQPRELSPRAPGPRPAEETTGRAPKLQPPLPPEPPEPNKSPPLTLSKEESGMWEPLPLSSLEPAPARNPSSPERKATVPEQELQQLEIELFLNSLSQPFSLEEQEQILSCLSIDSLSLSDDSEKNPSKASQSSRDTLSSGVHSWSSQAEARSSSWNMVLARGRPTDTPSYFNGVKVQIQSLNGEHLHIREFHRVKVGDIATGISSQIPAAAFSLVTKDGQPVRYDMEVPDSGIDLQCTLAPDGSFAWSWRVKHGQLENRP
Protocol: Inhibition of auto-phosphorylation of recombinant human NF-kappaB-inducing kinase (NIK/MAP3K14) activity (AlphaScreen®)
NIK/MAP3K14 auto-phosphorylation activity was measured using the AlphaScreen® (αscreen) format (Perkin Elmer). All compounds tested were dissolved in dimethyl sulfoxide (DMSO) and further dilutions were made in assay buffer. Final DMSO concentration was 1% (v/v) in assays. Assay buffer was 50 mM Tris pH 7.5 containing 1 mM EGTA (ethylene glycol tetraacetic acid), 1 mM DTT (dithiothreitol), 0.1 mM Na3VO4, 5 mM MgCl2, 0.01% Tween® 20. Assays were carried out in 384 well Alphaplates (Perkin Elmer). Incubations consisted of compound, 25 microM Adenosine-5′-triphosphate (ATP), and 0.2 nM NIK/MAP3K14. Incubations were initiated by addition of GST-tagged NIK/MAP3K14 enzyme, carried out for 1 h at 25° C. and terminated by addition of stop buffer containing anti-phospho-IKK Ser176/180 antibody. Protein A Acceptor and Glutathione-Donor beads were added before reading using an EnVision® Multilabel Plate Reader (Perkin Elmer). Signal obtained in the wells containing blank samples was subtracted from all other wells and IC50's were determined by fitting a sigmoidal curve to % inhibition of control versus Log10 compound concentration.

| Structure (SMILES) | IC50 (JJN-3 cells; Homo sapiens, JJN-3, 96 h) | IC50 (KMS12-BM cells; Homo sapiens, KMS-12-BM, 96 h) | IC50 [1] | IC50 (KMS12-BM cells) | IC50 (JJN-3 cells) |
| --- | --- | --- | --- | --- | --- |
| Cc1nn(CC2CCOCC2)cc1Nc1nccc(-c2cc(C#N)c3c(c2)[C@@](C)(CO)CN3)n1 [Compound 75] | 2090 nM | ~6030 nM | 13 nM |  |  |
| Cn1nc(Nc2nccc(-c3cc(C#N)c4c(c3)C(C)(CO)CN4)n2)cc1C(=O)NC1CCOCC1 (centres unmarked) [Compound 50] | 316 nM | > 10000 nM | 3.8 nM |  |  |
| CNC(=O)c1nn(C)cc1Nc1nccc(-c2cc(C#N)c3c(c2)[C@@](C)(CO)CN3)n1 [Compound 53] | 851 nM | ~5010 nM | 3.5 nM |  |  |
| Cn1ccc(Nc2ncc(F)c(-c3cc(C#N)c4c(c3)[C@@](C)(CO)CN4)n2)n1 [Compound 144] | 36 nM | 44 nM | 2 nM |  |  |
| Cn1cc(Nc2nccc(-c3cc(C#N)c4c(c3)[C@@](C)(CO)CN4)n2)c(C(F)(F)F)n1 [Compound 64] | 240 nM | 3240 nM | 1.9 nM |  |  |
| Cn1nc(C(=O)N2CCC(F)(F)CC2)cc1Nc1nccc(-c2cc(C#N)c3c(c2)C(C)(CO)CN3)n1 (centres unmarked) [Compound 28] | 2570 nM | > 10000 nM | ~17 nM |  |  |
| Cn1nc(C2CCCCC2)cc1Nc1nccc(-c2cc(C#N)c3c(c2)C(C)(CO)CN3)n1 (centres unmarked) [Compound 6] | 347 nM | > 10000 nM | 7.6 nM |  |  |
| Cc1nc(Nc2nccc(-c3cc(C#N)c4c(c3)[C@@](C)(CO)CN4)n2)sc1C [Compound 148] | 93 nM | 282 nM | 0.8 nM |  |  |
| Cc1cc(Nc2nccc(-c3cc(C#N)c4c(c3)[C@@](C)(CO)CN4)n2)n(CC2CCOCC2)n1 [Compound 61] | 162 nM | 355 nM | 4.4 nM |  |  |
| Cc1cc(Nc2nccc(-c3cc(C#N)c4c(c3)[C@@](C)(CO)CN4)n2)n(CC2CCCO2)n1 (single isomer, unassigned) [Compound 52] |  |  | 6.9 nM | > 10000 nM | 115 nM |

Results, then the compound that gave them:

| IC50 (JJN-3 cells; Homo sapiens, JJN-3, 96 h) | IC50 (KMS12-BM cells; Homo sapiens, KMS-12-BM, 96 h) | IC50 [1] | IC50 (KMS12-BM cells) | IC50 (JJN-3 cells) | Structure (SMILES) |
| --- | --- | --- | --- | --- | --- |
| 309 nM |  | 13 nM | 1580 nM |  | COC(C)Cn1nc(C)cc1Nc1nccc(-c2cc(C#N)c3c(c2)[C@@](C)(CO)CN3)n1 (single isomer, unassigned) [Compound 77] |
| 295 nM | 3890 nM | 4.9 nM |  |  | COCCCn1ccc(Nc2nccc(-c3cc(C#N)c4c(c3)C(C)(CO)CN4)n2)n1 (centres unmarked) [Compound 23] |
| 229 nM | 2510 nM | 3.4 nM |  |  | CC(C)n1ccc(Nc2nccc(-c3cc(C#N)c4c(c3)C(C)(CO)CN4)n2)n1 (centres unmarked) [Compound 20] |
| 389 nM | ~4570 nM | 13 nM |  |  | COCCCn1nccc1Nc1nccc(-c2cc(C#N)c3c(c2)C(C)(CO)CN3)n1 (centres unmarked) [Compound 27] |
| ~436 nM | ~5010 nM | 9.6 nM |  |  | Cc1coc(Nc2nccc(-c3cc(C#N)c4c(c3)[C@@](C)(CO)CN4)n2)n1 [Compound 147] |
| 234 nM | ~7240 nM | 7.1 nM |  |  | COCCn1nc(C)cc1Nc1nccc(-c2cc(C#N)c3c(c2)C(C)(CO)CN3)n1 (centres unmarked) [Compound 14] |
| 1180 nM | ~10000 nM | 10 nM |  |  | Cn1ccc(Nc2nccc(-c3cc(C#N)c4c(c3)[C@](C)(CO)CN4)n2)n1 [Compound 34] |
| 525 nM | > 10000 nM | 11 nM |  |  | COCCCn1nc(C)cc1Nc1nccc(-c2cc(C#N)c3c(c2)[C@](C)(CO)CN3)n1 [Compound 54] |
| 69 nM | 468 nM | 1.5 nM |  |  | COC(C)(C)CCn1nc(Nc2nccc(-c3cc(C#N)c4c(c3)[C@@](C)(CO)CN4)n2)cc1C [Compound 58] |
| 89 nM | 263 nM | 5.1 nM |  |  | CC(C)n1ccc(Nc2nccc(-c3cc(C#N)c4c(c3)[C@@](C)(CO)CN4)n2)n1 [Compound 48] |
| 158 nM | 2400 nM | 6.6 nM |  |  | COCCCn1nccc1Nc1nccc(-c2cc(C#N)c3c(c2)[C@@](C)(CO)CN3)n1 [Compound 46] |
| 576 nM | 3700 nM |  |  |  | Cc1cc(Nc2nccc(-c3cc(C#N)c4c(c3)C(C)(CO)CN4)n2)n(CCN(C)C)n1 (centres unmarked) [Compound 11] |
